34 compounds from patent US8299111B2, “Compounds which modulate the CB2 receptor” (Boehringer Ingelheim International GmbH, priority 2006, dated 2012) can be followed below.

Molecules are shown by their SMILES.

T1 sequence (P34972 whole entry): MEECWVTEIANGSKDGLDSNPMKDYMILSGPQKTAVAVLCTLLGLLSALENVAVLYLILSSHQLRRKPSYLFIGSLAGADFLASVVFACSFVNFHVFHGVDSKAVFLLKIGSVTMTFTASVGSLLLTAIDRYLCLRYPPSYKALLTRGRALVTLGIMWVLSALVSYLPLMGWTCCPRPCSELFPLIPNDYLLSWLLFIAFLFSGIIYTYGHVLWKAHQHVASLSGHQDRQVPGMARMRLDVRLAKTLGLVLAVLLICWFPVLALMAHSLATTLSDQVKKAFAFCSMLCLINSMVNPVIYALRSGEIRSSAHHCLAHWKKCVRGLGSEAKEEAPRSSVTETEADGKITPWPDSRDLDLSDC

The assay concerns the target T1, human CB2R (Homo sapiens, UniProt P34972).
T1 construct: host or cells: CHO cells
Briefly: CB2R mediated modulation of cAMP synthesis. Format: cell-based. As to conditions: found through the use of the above described assays (binding and cAMP); CHO cells expressing human CB2R, forskolin-stimulated cAMP. The protocol: B. CB2R Mediated Modulation of cAMP Synthesis:
CHO cells expressing human CB2R (Euroscreen) were plated at a density of 5000 cells per well in 384 well plates and incubated overnight at 37° C. After removing the media, the cells were treated with test compounds diluted in stimulation buffer containing 1 mM IBMX, 0.25% BSA and 10 uM Forskolin. The assay was incubated for 30 minutes at 37° C. Cells were lysed and the cAMP concentration was measured using DiscoverX -XS cAMP kit, following the manufacturer's protocol. In this setting, agonists will decrease forskolin induced production of cAMP while inverse agonists will further increase forskolin induced production of cAMP. EC50 of agonists were calculated as follows. The maximal amount of cAMP produced by forskolin compared to the level of cAMP inhibited by 1 uM CP55940 is defined as 100%. The EC50 value of each test compound was determined as the concentration at which 50% of the forskolin-stimulated cAMP synthesis was inhibited. Data was analyzed using a four-parameter logistic model. (Model 205 of XLfit 4.0).
Consider `CC(C)(C)Cc1cc(NC(=O)C(C)(C)S(=O)(=O)c2ccc(Cl)cc2)on1`, for which the agonistic activity result was “agonistic activity”.

As for `CC(C)(C)c1cc(NC(=O)C(C)(C)S(=O)(=O)c2ccc[n+]([O-])c2)no1`, the agonistic activity entry is on record as “agonistic activity”.

For `Cc1nc(NC(=O)C2(S(=O)(=O)c3ccc(Cl)cc3)CCC2)sc1C(C)(C)C` [1-(4-Chloro-benzenesulfonyl)-cyclobutanecarboxylic acid (5-tert-butyl-4-methyl-thiazol-2-yl)-amide], the agonistic activity entry is given as “agonistic activity”.

On to `CC(C)(C)c1cc(NC(=O)C2(S(=O)(=O)c3ccc(Cl)cc3)CCC2)no1` [1-(4-Chloro-benzenesulfonyl)-cyclobutanecarboxylic acid (5-tert-butyl-isoxazol-3-yl)-amide], for which the agonistic activity entry was “agonistic activity”.

Take `CC(C)(C)c1cnc(NC(=O)C2(S(=O)(=O)c3ccc(Cl)cc3)CCC2)s1` [1-(4-Chloro-benzenesulfonyl)-cyclobutanecarboxylic acid (5-tert-butyl-thiazol-2-yl)-amide]: the agonistic activity result is “agonistic activity”.

With `Cn1nc(-c2ccccc2)cc1NC(=O)C1(S(=O)(=O)c2ccc(Cl)cc2)CC1` [1-(4-Chloro-benzenesulfonyl)-cyclopropanecarboxylic acid (2-methyl-5-phenyl-2H-pyrazol-3-yl)-amide], the agonistic activity entry is on record as “agonistic activity”.

For the compound `CC(C)(C)c1csc(NC(=O)C2(S(=O)(=O)c3ccc(Cl)cc3)CC2)n1` [1-(4-Chloro-benzenesulfonyl)-cyclopropanecarboxylic acid (4-tert-butyl-thiazol-2-yl)-amide], the agonistic activity result was “agonistic activity”.

For `O=C(Nc1cc(C(F)(F)F)ccn1)C1(S(=O)(=O)c2ccc(Cl)cc2)CC1` [1-(4-Chloro-benzenesulfonyl)-cyclopropanecarboxylic acid (4-trifluoromethyl-pyridin-2-yl)-amide], the agonistic activity result is “agonistic activity”.

Consider `Cn1nc(C(C)(C)C)cc1NC(=O)C1(S(=O)(=O)c2ccc(Cl)cc2)CC1` [1-(4-Chloro-benzenesulfonyl)-cyclopropanecarboxylic acid (5-tert-butyl-2-methyl-2H-pyrazol-3-yl)-amide], for which the agonistic activity result is given as “agonistic activity”.

On to `CC(C)(C)c1cc(NC(=O)C2(S(=O)(=O)c3ccc(Cl)cc3)CC2)[nH]n1` [1-(4-Chloro-benzenesulfonyl)-cyclopropanecarboxylic acid (5-tert-butyl-2H-pyrazol-3-yl)-amide], for which the agonistic activity result is given as “agonistic activity”.

Turning to `Cc1nc(NC(=O)C2(S(=O)(=O)c3ccc(Cl)cc3)CC2)sc1C(C)(C)C` [1-(4-Chloro-benzenesulfonyl)-cyclopropanecarboxylic acid (5-tert-butyl-4-methyl-thiazol-2-yl)-amide], the agonistic activity result is “agonistic activity”.

As for `CC(C)(C)c1cc(NC(=O)C2(S(=O)(=O)c3ccc(Cl)cc3)CC2)no1` [1-(4-Chloro-benzenesulfonyl)-cyclopropanecarboxylic acid (5-tert-butyl-isoxazol-3-yl)-amide], the agonistic activity entry was “agonistic activity”.

Regarding `O=C(Nc1ccc(C(F)(F)F)cn1)C1(S(=O)(=O)c2ccc(Cl)cc2)CC1` [1-(4-Chloro-benzenesulfonyl)-cyclopropanecarboxylic acid (5-trifluoromethyl-pyridin-2-yl)-amide], the agonistic activity result was “agonistic activity”.

For `Cc1nc(NC(=O)C2(S(=O)(=O)c3ccc(C(F)(F)F)cc3)CCC2)sc1C(C)(C)C` [1-(4-Trifluoromethyl-benzenesulfonyl)-cyclobutanecarboxylic acid (5-tert-butyl-4-methyl-thiazol-2-yl)-amide], the agonistic activity result is on record as “agonistic activity”.

As to `CC(C)(C)c1cc(NC(=O)C2(S(=O)(=O)c3ccc(C(F)(F)F)cc3)CCC2)no1` [1-(4-Trifluoromethyl-benzenesulfonyl)-cyclobutanecarboxylic acid (5-tert-butyl-isoxazol-3-yl)-amide], the agonistic activity result is recorded as “agonistic activity”.

Turning to `CC(C)(C)c1cnc(NC(=O)C2(S(=O)(=O)c3ccc(C(F)(F)F)cc3)CCC2)s1` [1-(4-Trifluoromethyl-benzenesulfonyl)-cyclobutanecarboxylic acid (5-tert-butyl-thiazol-2-yl)-amide], the agonistic activity result was “agonistic activity”.

For `CC(C)(C)c1csc(NC(=O)C2(S(=O)(=O)c3ccc(C(F)(F)F)cc3)CC2)n1` [1-(4-Trifluoromethyl-benzenesulfonyl)-cyclopropanecarboxylic acid (4-tert-butyl-thiazol-2-yl)-amide], the agonistic activity result was “agonistic activity”.

As to `O=C(Nc1cc(C(F)(F)F)ccn1)C1(S(=O)(=O)c2ccc(C(F)(F)F)cc2)CC1` [1-(4-Trifluoromethyl-benzenesulfonyl)-cyclopropanecarboxylic acid (4-trifluoromethyl-pyridin-2-yl)-amide], the agonistic activity result is given as “agonistic activity”.

On to `Cn1nc(C(C)(C)C)cc1NC(=O)C1(S(=O)(=O)c2ccc(C(F)(F)F)cc2)CC1` [1-(4-Trifluoromethyl-benzenesulfonyl)-cyclopropanecarboxylic acid (5-tert-butyl-2-methyl-2H-pyrazol-3-yl)-amide], for which the agonistic activity result was “agonistic activity”.

As to `Cc1nc(NC(=O)C2(S(=O)(=O)c3ccc(C(F)(F)F)cc3)CC2)sc1C(C)(C)C` [1-(4-Trifluoromethyl-benzenesulfonyl)-cyclopropanecarboxylic acid (5-tert-butyl-4-methyl-thiazol-2-yl)-amide], the agonistic activity entry is reported as “agonistic activity”.

In the case of `CC(C)(C)c1cc(NC(=O)C2(S(=O)(=O)c3ccc(C(F)(F)F)cc3)CC2)no1` [1-(4-Trifluoromethyl-benzenesulfonyl)-cyclopropanecarboxylic acid (5-tert-butyl-isoxazol-3-yl)-amide], the agonistic activity entry is recorded as “agonistic activity”.

Regarding `O=C(Nc1ccc(C(F)(F)F)cn1)C1(S(=O)(=O)c2ccc(C(F)(F)F)cc2)CC1` [1-(4-Trifluoromethyl-benzenesulfonyl)-cyclopropanecarboxylic acid (5-trifluoromethyl-pyridin-2-yl)-amide], the agonistic activity entry is given as “agonistic activity”.

`O=C(Nc1cccc(C(F)(F)F)n1)C1(S(=O)(=O)c2ccc(C(F)(F)F)cc2)CC1` [1-(4-Trifluoromethyl-benzenesulfonyl)-cyclopropanecarboxylic acid (6-trifluoromethyl-pyridin-2-yl)-amide]: the agonistic activity result was “agonistic activity”.

Consider `Cn1nc(-c2ccccc2)cc1NC(=O)C(C)(C)S(=O)(=O)c1ccc(F)cc1F` [2-(2,4-Difluoro-benzenesulfonyl)-2-methyl-N-(2-methyl-5-phenyl-2H-pyrazol-3-yl)-propionamide], for which the agonistic activity entry is recorded as “agonistic activity”.

With `CC(C)(C(=O)Nc1nc(-c2ccccn2)cs1)S(=O)(=O)c1ccc(F)cc1F` [2-(2,4-Difluoro-benzenesulfonyl)-2-methyl-N-(4-pyridin-2-yl-thiazol-2-yl)-propionamide], the agonistic activity entry is “agonistic activity”.

As for `CC(C)(C(=O)Nc1nc(-c2cccnc2)cs1)S(=O)(=O)c1ccc(F)cc1F` [2-(2,4-Difluoro-benzenesulfonyl)-2-methyl-N-(4-pyridin-3-yl-thiazol-2-yl)-propionamide], the agonistic activity entry is given as “agonistic activity”.

As for `CC(C)(C(=O)Nc1cccc2ccccc12)S(=O)(=O)c1ccc(F)cc1F` [2-(2,4-Difluoro-benzenesulfonyl)-2-methyl-N-naphthalen-1-yl-propionamide], the agonistic activity result is recorded as “agonistic activity”.

As to `CC(C)(C(=O)Nc1cnc2ccccc2c1)S(=O)(=O)c1ccc(F)cc1F` [2-(2,4-Difluoro-benzenesulfonyl)-2-methyl-N-quinolin-3-yl-propionamide], the agonistic activity entry is “agonistic activity”.

Regarding `CC(C)(C(=O)Nc1cc2ccccc2cn1)S(=O)(=O)c1ccc(F)cc1F` [2-(2,4-Difluoro-benzenesulfonyl)-N-isoquinolin-3-yl-2-methyl-propionamide], the agonistic activity result is on record as “agonistic activity”.

On to `CC(C)(C(=O)Nc1ccc(C(F)(F)F)cn1)S(=O)(=O)c1cc(F)ccc1F` [2-(2,5-Difluoro-benzenesulfonyl)-2-methyl-N-(5-trifluoromethyl-pyridin-2-yl)-propionamide], for which the agonistic activity entry is “agonistic activity”.

For the compound `CC(C)(C(=O)Nc1cccc(C(F)(F)F)n1)S(=O)(=O)c1cc(F)ccc1F` [2-(2,5-Difluoro-benzenesulfonyl)-2-methyl-N-(6-trifluoromethyl-pyridin-2-yl)-propionamide], the agonistic activity result is on record as “agonistic activity”.

For the compound `Cc1ccc(S(=O)(=O)C(C)(C)C(=O)Nc2ccc(C(F)(F)F)cn2)c(F)c1` [2-(2-Fluoro-4-methyl-benzenesulfonyl)-2-methyl-N-(5-trifluoromethyl-pyridin-2-yl)-propionamide], the agonistic activity result was “agonistic activity”.

For `CC(C)(C(=O)Nc1ccc(C(F)(F)F)cn1)S(=O)(=O)c1ccccc1F` [2-(2-Fluoro-benzenesulfonyl)-2-methyl-N-(5-trifluoromethyl-pyridin-2-yl)-propionamide], the agonistic activity result is recorded as “agonistic activity”.

As for `COc1ccc(S(=O)(=O)C(C)(C)C(=O)Nc2ccc(C(F)(F)F)cn2)cc1F` [2-(3-Fluoro-4-methoxy-benzenesulfonyl)-2-methyl-N-(5-trifluoromethyl-pyridin-2-yl)-propionamide], the agonistic activity entry was “agonistic activity”.
